Reference: patent publication US20110190237A1, “Macrocyclic Prodrug Compounds Useful as Therapeutics” (NEXGENIX PHARMACEUTICALS, priority 2008, published 2011)
Values after ≈ are worked out from the molar mass of the structure shown. Like-named read-outs stand apart in the source and are kept apart here.

Experiments:
BT474 (breast) = test: Cell proliferation assay (ATPlite), BT474; type: cell-based; conditions: read-out: Growth inhibition (IC50)
MDA231 (breast) = test: Cell proliferation assay (ATPlite), MDA231; type: cell-based; conditions: 4 days, read-out: Growth inhibition (IC50)
MDA-MB468 (breast) = test: Cell proliferation assay (ATPlite), MDA-MB468; type: cell-based; conditions: for IC50: read-out: Growth inhibition (IC50)
N87 (gastric) = test: Cell proliferation assay (ATPlite), N87; type: cell-based; conditions: read-out: Growth inhibition (IC50)
K562 (leukemia) = test: Cell proliferation assay (ATPlite), K562; type: cell-based; conditions: 4 days, read-out: Growth inhibition (IC50)
MV4;11 (leukemia) = test: Cell proliferation assay (ATPlite), MV4;11; type: cell-based; conditions: 4 days, read-out: Growth inhibition (IC50)
HCT116 (colon) = test: Cell proliferation assay (ATPlite), HCT116; type: cell-based; conditions: 4 days, read-out: Growth inhibition (IC50)
HCC827 (lung) = test: Cell proliferation assay (ATPlite), HCC827; type: cell-based; conditions: 4 days, read-out: Growth inhibition (IC50)
Experimental: (§1) Cell proliferation assays were performed in various oncology cell lines, including breast cancer (BT474 and MDA-MB468), leukemia (K562 CML and MV4;11 AML), colon (HCT116), prostate cancer (PC-3), Tarceva- and Iressa-resistant non-small cell lung cancer (NSCLC, […] and H1975), gastric cancer (N87) as well as glioblastoma (A172) cell lines. […] Cell viability at day 4 was measured by the amount of ATP present in viable cells using ATPlite assay kit according to manufacturer's protocol (Perkin Elmer, Boston, Mass.). IC50 was calculated by fitting the data using XLfit software.

H1975 (lung) = test: Cell proliferation assay (ATPlite), H1975; type: cell-based; conditions: 4 days, read-out: Growth inhibition (IC50)
Experimental: as §1

A172(glioblastoma) = test: Cell proliferation assay (ATPlite), A172; type: cell-based; conditions: 4 days, read-out: Growth inhibition (IC50)
Experimental: as §1

HSP90α = HSP90α (Homo sapiens, UniProt P07900); test: HSP90α affinity; type: binding
[1] = In vitro conversion/stability of prodrug in plasma; type: in vitro ADME; conditions: mouse plasma; at 60 minutes
Experimental: (§2) Hydrolysis of prodrug in vivo was estimated by incubating phosphate prodrugs in vitro with mouse small intestine and liver homogenates, mouse plasma, and artificial gastric fluid. Plasma was freshly collected from nude mice. Liver and intestine homogenates were prepared by adding 3 volume of saline to freshly collected mouse tissues and homogenized using glass homogenizer. Gastric fluid was prepared by adding 80 mL of 1M hydrochloric acid to 800 mL of water and then supplementing with 2.0 g of sodium chloride and 3.2 g of pepsin powder. The final volume of the artificial gastric fluid was adjusted with water to 1000 mL (pH=1.1). […] 100 μL samples were collected at 0, 2, 5, 15, 30 and 60 minutes. 5 volumes methanol containing internal standard was added immediately. For samples from gastric fluid incubation, 1 volume of 0.01 M Sodium hydroxide was added before injection into LC/MS/MS. All samples were analyzed by LC/MS/MS to quantitate the concentration of 1a, 1b and the corresponding parent drugs. The concentration of the parent drugs of 1a and 1b was quantitated using standard curve prepared using each vehicle.
(§3) We then evaluate other prodrug conversion in vitro using tissue homogenates and a mimic of gastric fluid (pepsin solution at pH 1.1).

[2] = In vitro conversion/stability of prodrug in artificial gastric fluid (pepsin solution, pH 1.1); type: in vitro ADME; conditions: artificial gastric fluid pH 1.1; at 60 minutes
Experimental: as §2, §3

[3] = In vitro partition between plasma and cells in mouse whole blood; type: in vitro ADME; conditions: for Test article concentration in cellular elements / Test article concentration in plasma: mouse whole blood spiked at 5 μg/mL, 37° C.; for Partition of the test articles between plasma and cells: mouse whole blood, 5 μg/mL
Experimental: The whole blood was withdrawn from mice via cardio-puncture and placed in EDTA anticoagulant tubes. The test articles were spiked to whole blood at final concentration of 5 μg/mL (at least 2 mL) and incubated at 37° C. 200 μL whole blood was taken at 0 (immediate after incubation), 5 min, 15 min and 30 min and then was centrifuged to separate plasma and cellular elements. Plasma was transferred to clean tubes. 50 μL of plasma and cellular elements were processed by addition of 3 volumes (150 μl) of ice-cold methanol. After centrifugation, the supernatants were subjected to LC-MS/MS analysis of test articles in both plasma and cellular elements.

[4] = Solubility of phosphate prodrugs in organic- and aqueous-based media; type: physicochemical; conditions: for solubility: read-out: Maximum observed solubility
Experimental: Crystalline phosphate drugs 1a and 1b were tested first in several different organic- and aqueous-based media, including water, PBS, ETOH, DMA, CMC, and PG.
The maximum observed solubilities with small lots of crystalline drug in 4-mL glass clear tubes were: […]

[5] = Solubility for oral formulation of PU24FCl; type: physicochemical; conditions: in our hands
Description: More recently, other novel non-natural product Hsp90 inhibitors have been reported (e.g. PU3 and CCT018159; see Chiosis et. al. Bioorg. Med. Chem. Lett. 2002, 10, 3555-3564; Vilenchik et. al. Chem. Biol. 2004, 11, 787-797; Chiosis et. al. WO 0236075, 2002; Drysdale et. al. WO 03/055860 A1, 2003; Wright et. al. Chem. Biol. 2004, 11, 775-785; Dymock et. al. Bioorg. Med. Chem. Lett. 2004, 14, 325-328; Dymock et. al. J. Med. Chem. 2005, 48, 4212-4215. Structure of Hsp90 in complex with PU3 pdb code 1UY6, and with PU24FCl: pdb code 1UYF and Clevenger et. al. Org. Lett. 2004, 6, 4459-4462). […] The 8-benzyladenines such as PU3 were designed to adopt the same C-shaped conformation as geldanamycin (Chiosis et. al. Current Cancer Drug Targets, 2003, 3, 371-376) with the adenine ring pointing to the adenine-binding site (hinge region), and the trimethoxybenzene ring emulating the H-bond accepting nature of the quinone ring of geldanamycin. […]

MCF-7 xenograft tumors = conditions: mice bearing MCF-7 xenograft tumors; intraperitoneally, 200 mg/kg; DMSO/EtOH/phosphate-buffered saline 1:1:1; cited from earlier work
[6] = BT474 (breast), 4 days, cell viability by ATPlite
[7] = MDA-MB468 (breast), 4 days, ATPlite

SMILES	IC50 (BT474 (breast); [6]) [nM]	IC50 (MDA231 (breast)) [nM]	IC50 (MDA-MB468 (breast); [7]) [nM]	IC50 (N87 (gastric); N87 (gastric), 4 days, ATPlite) [nM]	IC50 (K562 (leukemia)) [nM]	IC50 (MV4;11 (leukemia)) [nM]	IC50 (HCT116 (colon)) [nM]	IC50 (HCC827 (lung)) [nM]	IC50 (H1975 (lung)) [nM]	HSP90α affinity (HSP90α)	Prodrug intact in plasma [1]	Prodrug intact in artificial gastric fluid [2]	Test article concentration in cellular elements ([3]; 0 min) [ng/mL]	Test article concentration in plasma ([3]; 0 min) [ng/mL]	Test article concentration in cellular elements ([3]; 5 min) [ng/mL]	Test article concentration in plasma ([3]; 5 min) [ng/mL]	Test article concentration in cellular elements ([3]; 15 min) [ng/mL]	Test article concentration in plasma ([3]; 15 min) [ng/mL]	Test article concentration in cellular elements ([3]; 30 min) [ng/mL]	Test article concentration in plasma ([3]; 30 min) [ng/mL]	also measured
O=C1OCC/C=C/CC/C=C/C(=N\OCC(=O)N2CCCCC2)Cc2c(Cl)c(O)cc(O)c21 [1a parent]	7	7	9	4	6	3	9	31	25	21 nM											IC50 (A172(glioblastoma)): 42 nM
O=C1OCC/C=C/CC/C=C/C(=N\OCC(=O)N2CCCCC2)Cc2cc(O)cc(O)c21 [1b parent]	2	2	2	1	4	2	11			15 nM											
O=C1OCC/C=C/CC/C=C/C(=N\OCC(=O)N2CCCCC2)Cc2c(Cl)c(OP(=O)(O)O)cc(O)c21 [Compound 1a]											about 90%	about 70%	1893.93	7988.91	1632.69	7654.94	1655.20	8123.27	1956.15	9680.38	Partition of the test articles between plasma and cells [3]: The concentration of 1a and 1b in plasma is larger than the nominated concentration in whole blood (5 μg/mL), which indicated that the partition of the test articles was mainly in plasma.; solubility ([4]; 0.5% CMC/0.1% Tween-20/0.45% NaCl): 87.5 mg/mL (≈ 157 mM); solubility ([4]; PBS): 55 mg/mL (≈ 98.8 mM); Solubility in water and PBS compared to the parent drugs [4]: very soluble
O=C1OCC/C=C/CC/C=C/C(=N\OCC(=O)N2CCCCC2)Cc2cc(OP(=O)(O)O)cc(O)c21 [Compound 1b]										>10 000 nM	about 90%	about 70%	1999.60	7119.50	1364.01	7833.27	1070.97	7672.71	1237.82	7409.47	IC50 (BT474 (breast); Homo sapiens, BT-474, 96 h): 14 nM; IC50 (MDA-MB468 (breast); Homo sapiens, MDA-MB-468, 96 h): 37 nM; IC50 (N87 (gastric); 96 h): 19 nM; Binding to Hsp90 in vitro (HSP90α): does not bind; Partition of the test articles between plasma and cells [3]: The concentration of 1a and 1b in plasma is larger than the nominated concentration in whole blood (5 μg/mL), which indicated that the partition of the test articles was mainly in plasma.; Solubility in water and PBS compared to the parent drugs [4]: very soluble
C=CCNC1=C2C[C@@H](C)C[C@H](OC)[C@H](O)[C@@H](C)/C=C(\C)[C@H](OC(N)=O)[C@@H](OC)/C=C\C=C(/C)C(=O)NC(=CC1=O)C2=O [Compound 17AAG, 17-allylamino-17-demethoxygeldanamycin, reference compound]	5		780	1	48	11		56	35												Anti-proliferative activity against MDA-MB468 (MDA-MB468 (breast); MDA-MB468): significantly less sensitive
C#CCCCn1c(Cc2cc(OC)c(OC)c(OC)c2Cl)nc2c(N)nc(F)nc21 [PU24FCl]																					Solubility for oral formulation and delivery [5]: too insoluble; Tumor growth (MCF-7 xenograft tumors): significantly repressed tumor growth
